pIC50: −log10 of the molar value.
Biological target: T1, PI3K alpha (Homo sapiens, UniProt P42336)
T1 construct: purchased Invitrogen Corp., Carlsbad, CA, USA
Experiment: Luciferase-based luminescence assay (KinaseGlo), PI3K alpha enzymatic activity
Type: biochemical
Details: inhibition of enzymatic activity, 25 μM ATP, read-out: IC50 p110α
Protocol: PI3K catalyzes the conversion of phosphatidylinositol-4,5-bisphosphate (PIP2) and ATP to phosphatidylinositol-3,4,5-trisphosphate (PIP3) and ADP. For all assays, the reaction buffer comprised 50 mM HEPES, pH 7.5, 3 mM MgCl2, 1 mM EGTA, 100 mM NaCl, 0.03% CHAPS and 2 mM DTT. Compounds for testing were dissolved and serially diluted in 100% DMSO (total of 10 concentrations), then diluted 1:25 in reaction buffer.
PI3K alpha and PI3K delta enzymatic activity was determined by measuring the amount of ATP consumed following the kinase reaction using a luciferase-based luminescence assay (KinaseGlo®, Promega Corp., Madison, WI, USA). PI3K enzyme solutions were prepared by diluting PI3K alpha (Invitrogen Corp., Carlsbad, CA, USA) or PI3K delta (Millipore, Billerica, MA, USA) in reaction buffer, to 4× the final assay concentration (final concentrations of enzymes were 1.65 nM and 6.86 nM for PI3K alpha and PI3K delta, respectively). A substrate solution was prepared by mixing PIP2 and ATP in reaction buffer at 2× the final assay concentration (final concentrations were 50 μM and 25 μM for PIP2 and ATP respectively). 2.5 μL each of the compound and kinase mixtures were added to individual wells of white low volume 384-well assay plates and mixed by shaking. The reactions were started by adding 5 μL of substrate mixture per well and shaking. The assay plates were covered and reactions were allowed to proceed for 1 hour (PI3K alpha) or 2 hours (PI3K delta), after which 10 μL of Kinase Glo® reagent was added. The plates were briefly centrifuged and incubated for 10 minutes, after which luminescence was measured using a FlexStation plate reader (Molecular Devices, Sunnyvale, CA, USA). IC50 values were determined by curve fitting using Graphpad Prism software (Graphpad Software, La Jolla, CA, USA).

T1 sequence (P42336 whole entry, species assumed): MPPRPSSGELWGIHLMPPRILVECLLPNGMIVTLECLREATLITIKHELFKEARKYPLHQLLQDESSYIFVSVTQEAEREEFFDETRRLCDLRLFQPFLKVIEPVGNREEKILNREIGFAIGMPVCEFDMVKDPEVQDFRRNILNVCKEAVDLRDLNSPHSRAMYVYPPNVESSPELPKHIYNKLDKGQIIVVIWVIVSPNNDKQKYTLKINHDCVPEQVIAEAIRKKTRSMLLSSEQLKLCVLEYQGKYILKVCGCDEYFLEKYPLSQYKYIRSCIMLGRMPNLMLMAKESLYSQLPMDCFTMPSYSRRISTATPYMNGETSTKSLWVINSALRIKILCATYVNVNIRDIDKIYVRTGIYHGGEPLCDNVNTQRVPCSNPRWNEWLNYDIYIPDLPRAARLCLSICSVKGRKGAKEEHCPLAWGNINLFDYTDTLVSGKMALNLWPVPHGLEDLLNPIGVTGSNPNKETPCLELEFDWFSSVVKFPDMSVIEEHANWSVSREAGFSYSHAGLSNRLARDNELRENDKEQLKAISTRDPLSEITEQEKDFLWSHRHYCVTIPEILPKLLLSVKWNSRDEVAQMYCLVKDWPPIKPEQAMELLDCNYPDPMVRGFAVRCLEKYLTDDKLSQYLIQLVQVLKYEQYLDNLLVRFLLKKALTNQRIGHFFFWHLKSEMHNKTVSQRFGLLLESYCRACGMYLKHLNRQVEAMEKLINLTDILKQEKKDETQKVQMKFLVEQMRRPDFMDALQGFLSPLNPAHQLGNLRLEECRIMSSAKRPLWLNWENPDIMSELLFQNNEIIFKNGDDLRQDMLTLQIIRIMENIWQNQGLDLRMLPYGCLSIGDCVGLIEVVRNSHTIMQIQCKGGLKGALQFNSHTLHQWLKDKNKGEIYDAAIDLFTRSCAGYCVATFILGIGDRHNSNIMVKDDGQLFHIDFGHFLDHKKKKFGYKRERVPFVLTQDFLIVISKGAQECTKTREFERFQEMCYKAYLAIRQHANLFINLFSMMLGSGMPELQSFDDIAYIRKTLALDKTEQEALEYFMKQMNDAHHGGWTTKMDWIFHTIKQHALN
T1 sequence (P27986 whole entry partner, species assumed): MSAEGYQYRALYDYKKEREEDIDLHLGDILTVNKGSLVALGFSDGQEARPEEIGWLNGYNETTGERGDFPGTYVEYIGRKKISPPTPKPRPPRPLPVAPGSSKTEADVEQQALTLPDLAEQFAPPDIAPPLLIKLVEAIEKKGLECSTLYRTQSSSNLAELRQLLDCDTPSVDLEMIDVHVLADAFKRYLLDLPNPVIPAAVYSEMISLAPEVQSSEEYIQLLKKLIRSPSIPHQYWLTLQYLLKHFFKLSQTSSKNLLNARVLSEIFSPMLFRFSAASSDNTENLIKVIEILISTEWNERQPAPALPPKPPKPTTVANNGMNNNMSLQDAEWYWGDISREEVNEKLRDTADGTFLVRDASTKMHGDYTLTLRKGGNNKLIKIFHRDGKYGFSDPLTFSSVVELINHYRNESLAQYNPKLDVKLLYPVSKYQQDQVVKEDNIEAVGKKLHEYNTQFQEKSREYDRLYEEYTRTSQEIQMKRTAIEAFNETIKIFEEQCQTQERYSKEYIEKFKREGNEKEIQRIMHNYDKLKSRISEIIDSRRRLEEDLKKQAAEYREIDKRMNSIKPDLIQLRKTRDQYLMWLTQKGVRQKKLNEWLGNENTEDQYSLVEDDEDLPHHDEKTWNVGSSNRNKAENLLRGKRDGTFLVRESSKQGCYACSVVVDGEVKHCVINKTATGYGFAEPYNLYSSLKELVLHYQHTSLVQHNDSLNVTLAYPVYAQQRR

`CC(C)(Cc1ccccc1)Nc1nc(N2CCOCC2)nc(-n2c(C(F)F)nc3ccccc32)n1` [Compound A14, 4-(2-(difluoromethyl)-1H-benzo[d]imidazol-1-yl)-N-(2-methyl-1-phenylpropan-2-yl)-6-morpholino-1,3,5-triazin-2-amine] and `CC(C)(Cc1ccccc1F)Nc1nc(N2CCOCC2)nc(-n2c(C(F)F)nc3ccccc32)n1` [Compound A15, 4-(2-(difluoromethyl)-1H-benzo[d]imidazol-1-yl)-N-(1-(2-fluorophenyl)-2-methylpropan-2-yl)-6-morpholino-1,3,5-triazin-2-amine] cannot be ordered by pIC50: less than 6.30 for the first, less than 6.30 for the second.

`CC(C)(Cc1ccccc1Cl)Nc1nc(N2CCOCC2)nc(-n2c(C(F)F)nc3ccccc32)n1` [Compound A16, 4-(2-(difluoromethyl)-1H-benzo[d]imidazol-1-yl)-N-(1-(2-chlorophenyl)-2-methylpropan-2-yl)-6-morpholino-1,3,5-triazin-2-amine] and `Cc1ccccc1CC(C)(C)Nc1nc(N2CCOCC2)nc(-n2c(C(F)F)nc3ccccc32)n1` [Compound A18, 4-(2-(difluoromethyl)-1H-benzo[d]imidazol-1-yl)-N-(2-methyl-1-(o-tolyl)propan-2-yl)-6-morpholino-1,3,5-triazin-2-amine] cannot be ordered by pIC50: less than 6.30 for the first, less than 6.30 for the second.

`COc1ccccc1CC(C)(C)Nc1nc(N2CCOCC2)nc(-n2c(C(F)F)nc3ccccc32)n1` [Compound A19, 4-(2-(difluoromethyl)-1H-benzo[d]imidazol-1-yl)-N-(1-(2-methoxyphenyl)-2-methylpropan-2-yl)-6-morpholino-1,3,5-triazin-2-amine] and `COc1cccc(CC(C)(C)Nc2nc(N3CCOCC3)nc(-n3c(C(F)F)nc4ccccc43)n2)c1` [Compound A21, 4-(2-(difluoromethyl)-1H-benzo[d]imidazol-1-yl)-N-(1-(3-methoxyphenyl)-2-methylpropan-2-yl)-6-morpholino-1,3,5-triazin-2-amine] cannot be ordered by pIC50: less than 6.30 for the first, less than 6.30 for the second.

`CC(C)(Cc1ccc(F)cc1)Nc1nc(N2CCOCC2)nc(-n2c(C(F)F)nc3ccccc32)n1` [Compound A22, 4-(2-(difluoromethyl)-1H-benzo[d]imidazol-1-yl)-N-(1-(4-fluorophenyl)-2-methylpropan-2-yl)-6-morpholino-1,3,5-triazin-2-amine] and `CC(C)(Cc1cccc(F)c1)Nc1nc(N2CCOCC2)nc(-n2c(C(F)F)nc3ccccc32)n1` [Compound A39, 4-(2-(difluoromethyl)-1H-benzo[d]imidazol-1-yl)-N-(1-(3-fluorophenyl)-2-methylpropan-2-yl)-6-morpholino-1,3,5-triazin-2-amine] cannot be ordered by pIC50: less than 6.30 for the first, less than 6.30 for the second.

`CC(C)(Cc1cccc2ccccc12)Nc1nc(N2CCOCC2)nc(-n2c(C(F)F)nc3ccccc32)n1` [Compound A27, 4-(2-(difluoromethyl)-1H-benzo[d]imidazol-1-yl)-N-(2-methyl-1-(naphthalen-1-yl)propan-2-yl)-6-morpholino-1,3,5-triazin-2-amine] and `CC(C)(Cc1ccccc1-c1ccccc1F)Nc1nc(N2CCOCC2)nc(-n2c(C(F)F)nc3ccccc32)n1` [Compound A59, 4-(2-(difluoromethyl)-1H-benzo[d]imidazol-1-yl)-N-(1-(2′-fluorobiphenyl-2-yl)-2-methylpropan-2-yl)-6-morpholino-1,3,5-triazin-2-amine] cannot be ordered by pIC50: less than 6.30 for the first, less than 6.30 for the second.

`CC(C)(Cc1ccccc1-c1ccncc1)Nc1nc(N2CCOCC2)nc(-n2c(C(F)F)nc3ccccc32)n1` [Compound A33, 4-(2-(difluoromethyl)-1H-benzo[d]imidazol-1-yl)-N-(2-methyl-1-(2-(pyridin-4-yl)phenyl)propan-2-yl)-6-morpholino-1,3,5-triazin-2-amine] and `CC(C)(Cc1ccccc1-c1cccnc1)Nc1nc(N2CCOCC2)nc(-n2c(C(F)F)nc3ccccc32)n1` [Compound A40, 4-(2-(difluoromethyl)-1H-benzo[d]imidazol-1-yl)-N-(2-methyl-1-(2-(pyridin-3-yl)phenyl)propan-2-yl)-6-morpholino-1,3,5-triazin-2-amine] fall in the same range of pIC50: 6.30 to 6.70 for the first, 6.30 to 6.70 for the second.

First: CN1CCC(c2ccccc2CC(C)(C)Nc2nc(N3CCOCC3)nc(-n3c(C(F)F)nc4ccccc43)n2)CC1 [Compound A35, 4-(2-(difluoromethyl)-1H-benzo[d]imidazol-1-yl)-N-(2-methyl-1-(2-(1-methylpiperidin-4-yl)phenyl)propan-2-yl)-6-morpholino-1,3,5-triazin-2-amine]
Second: Cn1cc(-c2ccccc2CC(C)(C)Nc2nc(N3CCOCC3)nc(-n3c(C(F)F)nc4ccccc43)n2)cn1 [Compound A45, 4-(2-(difluoromethyl)-1H-benzo[d]imidazol-1-yl)-N-(2-methyl-1-(2-(1-methyl-1H-pyrazol-4-yl)phenyl)propan-2-yl)-6-morpholino-1,3,5-triazin-2-amine]
The pIC50 of the first is lower: less than 6.30 for the first, 6.70 to 7.00 for the second. The second is the more potent here.

First: COc1cc(-c2ccccc2CC(C)(C)Nc2nc(N3CCOCC3)nc(-n3c(C(F)F)nc4ccccc43)n2)ccn1 [Compound A41, 4-(2-(difluoromethyl)-1H-benzo[d]imidazol-1-yl)-N-(1-(2-(2-methoxypyridin-4-yl)phenyl)-2-methylpropan-2-yl)-6-morpholino-1,3,5-triazin-2-amine]
Second: Cc1cc(-c2ccccc2CC(C)(C)Nc2nc(N3CCOCC3)nc(-n3c(C(F)F)nc4ccccc43)n2)ccn1 [Compound A43, 4-(2-(difluoromethyl)-1H-benzo[d]imidazol-1-yl)-N-(2-methyl-1-(2-(2-methylpyridin-4-yl)phenyl)propan-2-yl)-6-morpholino-1,3,5-triazin-2-amine]
The pIC50 of the first is lower: less than 6.30 for the first, 6.30 to 6.70 for the second.

`CC(C)(Cc1ccccc1-c1cn[nH]c1)Nc1nc(N2CCOCC2)nc(-n2c(C(F)F)nc3ccccc32)n1` [Compound A44, 4-(2-(difluoromethyl)-1H-benzo[d]imidazol-1-yl)-N-(1-(2-(1H-pyrazol-4-yl)phenyl)-2-methylpropan-2-yl)-6-morpholino-1,3,5-triazin-2-amine] and `CC(C)(Cc1ccccc1-c1cncnc1)Nc1nc(N2CCOCC2)nc(-n2c(C(F)F)nc3ccccc32)n1` [Compound A63, 4-(2-(difluoromethyl)-1H-benzo[d]imidazol-1-yl)-N-(2-methyl-1-(2-(pyrimidin-5-yl)phenyl)propan-2-yl)-6-morpholino-1,3,5-triazin-2-amine] fall in the same range of pIC50: 6.30 to 6.70 for the first, 6.30 to 6.70 for the second.

First: Cn1nccc1-c1ccccc1CC(C)(C)Nc1nc(N2CCOCC2)nc(-n2c(C(F)F)nc3ccccc32)n1 [Compound A46, 4-(2-(difluoromethyl)-1H-benzo[d]imidazol-1-yl)-N-(2-methyl-1-(2-(1-methyl-1H-pyrazol-5-yl)phenyl)propan-2-yl)-6-morpholino-1,3,5-triazin-2-amine]
Second: CC(C)(Cc1ccccc1-c1cccnc1F)Nc1nc(N2CCOCC2)nc(-n2c(C(F)F)nc3ccccc32)n1 [Compound A62]
The pIC50 of the first is higher: 6.30 to 6.70 for the first, less than 6.30 for the second.

`Cc1cccc(CC(C)(C)Nc2nc(N3CCOCC3)nc(-n3c(C(F)F)nc4ccccc43)n2)c1` [Compound A49, 4-(2-(difluoromethyl)-1H-benzo[d]imidazol-1-yl)-N-(2-methyl-1-m-tolylpropan-2-yl)-6-morpholino-1,3,5-triazin-2-amine] and `COc1cc(CC(C)(C)Nc2nc(N3CCOCC3)nc(-n3c(C(F)F)nc4ccccc43)n2)ccc1F` [Compound A50, 4-(2-(difluoromethyl)-1H-benzo[d]imidazol-1-yl)-N-(1-(4-fluoro-3-methoxyphenyl)-2-methylpropan-2-yl)-6-morpholino-1,3,5-triazin-2-amine] cannot be ordered by pIC50: less than 6.30 for the first, less than 6.30 for the second.

`CC(C)(Cc1ccc(F)cc1F)Nc1nc(N2CCOCC2)nc(-n2c(C(F)F)nc3ccccc32)n1` [Compound A51, 4-(2-(difluoromethyl)-1H-benzo[d]imidazol-1-yl)-N-(1-(2,4-difluorophenyl)-2-methylpropan-2-yl)-6-morpholino-1,3,5-triazin-2-amine] and `CC(C)(Cc1c(F)cccc1F)Nc1nc(N2CCOCC2)nc(-n2c(C(F)F)nc3ccccc32)n1` [Compound A52, 4-(2-(difluoromethyl)-1H-benzo[d]imidazol-1-yl)-N-(1-(2,6-difluorophenyl)-2-methylpropan-2-yl)-6-morpholino-1,3,5-triazin-2-amine] cannot be ordered by pIC50: less than 6.30 for the first, less than 6.30 for the second.

`Cc1ccccc1-c1ccccc1CC(C)(C)Nc1nc(N2CCOCC2)nc(-n2c(C(F)F)nc3ccccc32)n1` [Compound A60, 4-(2-(difluoromethyl)-1H-benzo[d]imidazol-1-yl)-N-(2-methyl-1-(2′-methylbiphenyl-2-yl)propan-2-yl)-6-morpholino-1,3,5-triazin-2-amine] and `CC(C)(Cc1ccccc1-c1ccccc1Cl)Nc1nc(N2CCOCC2)nc(-n2c(C(F)F)nc3ccccc32)n1` [Compound A61, 4-(2-(difluoromethyl)-1H-benzo[d]imidazol-1-yl)-N-(1-(6′-chlorobiphenyl-2-yl)-2-methylpropan-2-yl)-6-morpholino-1,3,5-triazin-2-amine] cannot be ordered by pIC50: less than 6.30 for the first, less than 6.30 for the second.

— patent US12059422B2 (MEI Pharma, Inc., priority 2011, dated 2024)
